Molecular target: T1, OATP2B1 (Homo sapiens, UniProt O94956)
T1 construct: expressed in transfected cells
T1 sequence (O94956 1-709): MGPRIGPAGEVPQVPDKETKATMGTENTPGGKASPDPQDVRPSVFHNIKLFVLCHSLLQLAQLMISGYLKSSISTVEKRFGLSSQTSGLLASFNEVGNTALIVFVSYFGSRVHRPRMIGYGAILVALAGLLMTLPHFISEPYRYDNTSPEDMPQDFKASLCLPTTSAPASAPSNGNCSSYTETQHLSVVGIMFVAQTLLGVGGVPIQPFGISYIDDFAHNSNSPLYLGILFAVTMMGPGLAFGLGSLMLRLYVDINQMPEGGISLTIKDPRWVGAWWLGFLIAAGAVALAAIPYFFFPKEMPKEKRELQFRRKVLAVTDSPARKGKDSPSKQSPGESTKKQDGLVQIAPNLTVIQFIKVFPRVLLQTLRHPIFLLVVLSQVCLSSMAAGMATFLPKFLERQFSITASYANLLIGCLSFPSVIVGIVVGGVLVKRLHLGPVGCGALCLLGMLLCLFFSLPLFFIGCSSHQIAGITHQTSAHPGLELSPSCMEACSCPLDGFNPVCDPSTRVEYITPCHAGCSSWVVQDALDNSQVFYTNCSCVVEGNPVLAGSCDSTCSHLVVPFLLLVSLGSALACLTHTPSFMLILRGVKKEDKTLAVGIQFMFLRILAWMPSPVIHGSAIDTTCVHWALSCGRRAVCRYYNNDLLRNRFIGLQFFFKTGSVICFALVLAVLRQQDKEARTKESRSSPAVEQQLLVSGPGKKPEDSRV
Experiment: Remdesivir uptake into HEK cells stably expressing OATP2B1 vs vector control
Type: in vitro ADME
Conditions: 5 µM remdesivir, 10 min, transporter-expressing vs control HEK cells
From the text: Generation, cultivation and characterization of human embryonic kidney (HEK) cells stably expressing OATP1B1 refseq (=OATP1B1*1a), OATP1B1*1b, OATP1B1*5 and OATP1B1*15 [18], OATP1B3 [19], OATP2B1 [13] and OCT1 [20] have been described previously. OATP1B1 cells were cultivated in minimal essential medium (Life Technologies, Paisley, UK) and OATP1B3, OATP2B1 and OCT1 cells were cultivated in Dulbecco’s modified Eagle medium (Sigma, Darmstadt, Germany). Cultivation media were supplemented with 10% fetal calf serum, 100 U/mL penicillin and 100 µg/mL streptomycin. Cells were grown at 37 °C and 5% CO2. Functionality of the cells was confirmed by measuring uptake of prototypic substrates (see Section 2.3 and supplementary material).
Uptake assays were conducted at 37 °C according to previously described methods. For this, cells were seeded in 24-well plates (320,000 cells/well) and cultured for 2 days. Cells were then incubated for a further 24 h in culture medium with 5 mM butyrate (OATP1B3, OATP2B1, OCT1) or 10 mM butyrate (OATP1B1) to increase protein levels of recombinant transporters. […]
Remdesivir was determined by UHPLC-MS-MS analysis on an Agilent 1290 infinity UHPLC system coupled to an Agilent 6495B triple quadrupole mass spectrometer (Agilent, Waldbronn, Germany) similar to a recently published method. […]

## CCC(CC)COC(=O)[C@H](C)N[P@](=O)(OC[C@H]1O[C@@](C#N)(c2ccc3c(N)ncnn23)[C@H](O)[C@@H]1O)Oc1ccccc1 [Remdesivir]
  Remdesivir uptake ratio: 1.4

— PMC7999182, “Interaction of Remdesivir with Clinically Relevant Hepatic Drug Uptake Transporters” (Pharmaceutics, 2021)
